# Measurements from article PMC5218480 (PLoS ONE, 2017).
# Test system: MV-4-11 cells
# Experiment: Gene expression microarray analysis (Affymetrix PrimeView) and GSEA
# Type: cell-based, human
# Parameters: RFU PODN (11730768_x_at) / Fold change /veh PODN (11730768_x_at) / RFU LINC00158 (11744669_a_at) / Fold change /veh LINC00158 (11744669_a_at) / RFU DUSP10 (11751237_a_at) / Fold change /veh DUSP10 (11751237_a_at) / RFU ID3 (11757404_x_at) / Fold change /veh ID3 (11757404_x_at) / RFU PLEKHG5 (11737974_s_at) / Fold change /veh PLEKHG5 (11737974_s_at) / RFU LRRC4B (11730491_at) / Fold change /veh LRRC4B (11730491_at) / RFU GIMAP4 (11747438_a_at) / Fold change /veh GIMAP4 (11747438_a_at) / RFU KRT8 (11758183_x_at) / Fold change /veh KRT8 (11758183_x_at) / RFU CNN1 (11734310_a_at) / Fold change /veh CNN1 (11734310_a_at) / RFU VPS37D (11726825_at) / Fold change /veh VPS37D (11726825_at) / RFU C10orf10 (11716522_x_at) / Fold change /veh C10orf10 (11716522_x_at) / RFU KIR2DL2 /// KIR2DL4 /// KIR2DL5A /// KIR2DL5B /// KIR2DS1 /// KIR2DS2 /// KIR2DS3 /// KIR2DS4 /// KIR3DL3 /// KIR3DL3 /// KIR3DS1 (11738374_at) / Fold change /veh KIR2DL2 /// KIR2DL4 /// KIR2DL5A /// KIR2DL5B /// KIR2DS1 /// KIR2DS2 /// KIR2DS3 /// KIR2DS4 /// KIR3DL3 /// KIR3DL3 /// KIR3DS1 (11738374_at) / RFU C1QL1 (11718748_at) / Fold change /veh C1QL1 (11718748_at) / RFU TMPRSS4 (11747572_a_at) / Fold change /veh TMPRSS4 (11747572_a_at) / RFU HAMP (11756126_x_at) / Fold change /veh HAMP (11756126_x_at) / RFU RNFT2 (11725882_a_at) / Fold change /veh RNFT2 (11725882_a_at) / RFU NR4A2 (11747474_a_at) / Fold change /veh NR4A2 (11747474_a_at) / RFU ABCC12 (11746883_a_at) / Fold change /veh ABCC12 (11746883_a_at) / RFU TMEM136 (11760407_x_at) / Fold change /veh TMEM136 (11760407_x_at) / RFU CLDN22 /// WWC2 (11732394_at) / Fold change /veh CLDN22 /// WWC2 (11732394_at) / RFU HLA-DPB1 (11760878_x_at) / Fold change /veh HLA-DPB1 (11760878_x_at) / RFU SPINT1 (11716480_a_at) / Fold change /veh SPINT1 (11716480_a_at) / RFU GAP43 (11754022_s_at) / Fold change /veh GAP43 (11754022_s_at) / RFU A4GNT (11735810_at) / Fold change /veh A4GNT (11735810_at) / RFU PRB3 (11715151_x_at) / Fold change /veh PRB3 (11715151_x_at) / RFU TUBB4B (11761932_at) / Fold change /veh TUBB4B (11761932_at) / RFU CAPN14 (11732068_a_at) / Fold change /veh CAPN14 (11732068_a_at) / RFU TMCC2 (11721928_a_at) / Fold change /veh TMCC2 (11721928_a_at) / RFU IRGQ (11745062_a_at) / Fold change /veh IRGQ (11745062_a_at) / RFU FAM174B (11720279_a_at) / Fold change /veh FAM174B (11720279_a_at) / RFU TMPRSS4 (11748680_a_at) / Fold change /veh TMPRSS4 (11748680_a_at) / RFU FAM212B (11763350_a_at) / Fold change /veh FAM212B (11763350_a_at) / RFU PLEKHG5 (11743358_a_at) / Fold change /veh PLEKHG5 (11743358_a_at) / RFU ZSCAN30 (11745921_a_at) / Fold change /veh ZSCAN30 (11745921_a_at) / RFU CMKLR1 (11741424_a_at) / Fold change /veh CMKLR1 (11741424_a_at) / RFU LOC101060620 /// MAPK8IP1 (11723275_at) / Fold change /veh LOC101060620 /// MAPK8IP1 (11723275_at) / RFU SPTSSB (11747773_x_at) / Fold change /veh SPTSSB (11747773_x_at) / RFU PRSS12 (11739890_at) / Fold change /veh PRSS12 (11739890_at) / RFU BIN1 (11741810_x_at) / Fold change /veh BIN1 (11741810_x_at) / RFU WNT11 (11732464_a_at) / Fold change /veh WNT11 (11732464_a_at) / RFU C10orf10 (11716521_a_at) / Fold change /veh C10orf10 (11716521_a_at) / RFU C5orf56 (11738089_at) / Fold change /veh C5orf56 (11738089_at) / RFU CYB561 (11721691_x_at) / Fold change /veh CYB561 (11721691_x_at) / RFU ANKRD19P (11752326_a_at) / Fold change /veh ANKRD19P (11752326_a_at) / RFU OR2T12 /// OR2T33 /// OR2T8 (11738714_s_at) / Fold change /veh OR2T12 /// OR2T33 /// OR2T8 (11738714_s_at) / RFU VCAN (11748164_a_at) / Fold change /veh VCAN (11748164_a_at) / RFU JSRP1 (11732532_at) / Fold change /veh JSRP1 (11732532_at) / RFU KRTAP10-11 (11738290_x_at) / Fold change /veh KRTAP10-11 (11738290_x_at) / RFU MYO3A (11730013_a_at) / Fold change /veh MYO3A (11730013_a_at) / RFU EBF3 (11725865_a_at) / Fold change /veh EBF3 (11725865_a_at) / RFU CAMK2N1 (11719241_x_at) / Fold change /veh CAMK2N1 (11719241_x_at) / RFU C5orf56 (11738088_a_at) / Fold change /veh C5orf56 (11738088_a_at) / RFU OLFML3 (11715873_a_at) / Fold change /veh OLFML3 (11715873_a_at) / RFU LOC100653217 /// NTM (11731650_a_at) / Fold change /veh LOC100653217 /// NTM (11731650_a_at) / RFU MAPK11 (11762145_a_at) / Fold change /veh MAPK11 (11762145_a_at) / RFU FIZ1 (11724087_x_at) / Fold change /veh FIZ1 (11724087_x_at) / RFU OASL (11726364_x_at) / Fold change /veh OASL (11726364_x_at) / RFU SOX15 (11748057_x_at) / Fold change /veh SOX15 (11748057_x_at) / RFU CD79A (11719716_a_at) / Fold change /veh CD79A (11719716_a_at) / RFU HIST1H1D (11736915_at) / Fold change /veh HIST1H1D (11736915_at) / RFU CASKIN2 (11723855_a_at) / Fold change /veh CASKIN2 (11723855_a_at) / RFU LOC730098 (11760151_x_at) / Fold change /veh LOC730098 (11760151_x_at) / RFU OR4N2 (11742367_at) / Fold change /veh OR4N2 (11742367_at) / RFU PRRT2 (11749266_a_at) / Fold change /veh PRRT2 (11749266_a_at) / RFU SNX32 (11753110_a_at) / Fold change /veh SNX32 (11753110_a_at) / RFU CDHR5 (11726645_a_at) / Fold change /veh CDHR5 (11726645_a_at) / RFU RCAN1 (11760418_a_at) / Fold change /veh RCAN1 (11760418_a_at) / RFU FAM167A (11723789_a_at) / Fold change /veh FAM167A (11723789_a_at) / RFU FAM26E (11764081_at) / Fold change /veh FAM26E (11764081_at) / RFU ISYNA1 (11749810_s_at) / Fold change /veh ISYNA1 (11749810_s_at) / RFU ACY1 (11761880_at) / Fold change /veh ACY1 (11761880_at) / RFU 11764098_at / Fold change /veh 11764098_at / RFU SAMD14 (11745864_x_at) / Fold change /veh SAMD14 (11745864_x_at) / RFU NPB (11741838_a_at) / Fold change /veh NPB (11741838_a_at) / RFU TMPRSS6 (11731388_a_at) / Fold change /veh TMPRSS6 (11731388_a_at) / RFU KRTAP10-2 (11738614_at) / Fold change /veh KRTAP10-2 (11738614_at) / RFU ARHGAP8 /// PRR5-ARHGAP8 (11727945_x_at) / Fold change /veh ARHGAP8 /// PRR5-ARHGAP8 (11727945_x_at) / RFU KRTAP5-7 /// NADSYN1 (11734609_at) / Fold change /veh KRTAP5-7 /// NADSYN1 (11734609_at) / RFU RASL12 (11751679_a_at) / Fold change /veh RASL12 (11751679_a_at) / RFU CDKN2B (11736163_a_at) / Fold change /veh CDKN2B (11736163_a_at) / RFU PRF1 (11729649_at) / Fold change /veh PRF1 (11729649_at) / RFU, ZNF638 /// ZNF638-IT1 / Fold change vs veh, ZNF638 /// ZNF638-IT1 / RFU, PANK3 / Fold change vs veh, PANK3 / RFU, SH3YL1 / Fold change vs veh, SH3YL1 / RFU, ZEB2 / Fold change vs veh, ZEB2 / RFU, NRIP1 / Fold change vs veh, NRIP1 / RFU, PTTG1IP / Fold change vs veh, PTTG1IP / RFU, CAPN2 / Fold change vs veh, CAPN2 / RFU, MED14 / Fold change vs veh, MED14 / RFU, SNORA58 / Fold change vs veh, SNORA58 / RFU, C1orf63 / Fold change vs veh, C1orf63 / RFU, LRRFIP1 / Fold change vs veh, LRRFIP1 / RFU, NDUFAF7 / Fold change vs veh, NDUFAF7 / RFU, SLC12A2 / Fold change vs veh, SLC12A2 / RFU, IBTK / Fold change vs veh, IBTK / RFU, ESF1 / Fold change vs veh, ESF1 / Fold change vs veh, TMEM50B / RFU, TAOK1 / Fold change vs veh, TAOK1 / RFU, ACBD3 / Fold change vs veh, ACBD3 / RFU, TMA16 / Fold change vs veh, TMA16 / RFU, RWDD3 / Fold change vs veh, RWDD3 / RFU, BCAT1 / Fold change vs veh, BCAT1 / RFU, EDEM3 / Fold change vs veh, EDEM3 / RFU, TMEM33 / Fold change vs veh, TMEM33 / RFU, WDR75 / Fold change vs veh, WDR75 / RFU, AHCTF1 / Fold change vs veh, AHCTF1 / RFU, TFRC / Fold change vs veh, TFRC / RFU, ZDHHC17 / Fold change vs veh, ZDHHC17 / RFU, NOM1 / Fold change vs veh, NOM1 / RFU, ARL8B / Fold change vs veh, ARL8B / RFU, ZBTB11 / Fold change vs veh, ZBTB11 / RFU, TAMM41 / Fold change vs veh, TAMM41 / RFU, KIAA1704 /// LOC100996395 / Fold change vs veh, KIAA1704 /// LOC100996395 / RFU, ING1 / Fold change vs veh, ING1 / RFU, TRMT61B / Fold change vs veh, TRMT61B / RFU, FUBP3 / Fold change vs veh, FUBP3 / RFU, TP53 / Fold change vs veh, TP53 / RFU, TNKS2 / Fold change vs veh, TNKS2 / RFU, ZFP14 / Fold change vs veh, ZFP14 / RFU, ACTR2 / Fold change vs veh, ACTR2 / RFU, PPP3R1 / Fold change vs veh, PPP3R1 / RFU, PIK3R1 / Fold change vs veh, PIK3R1 / RFU, HNRNPA1 / Fold change vs veh, HNRNPA1 / RFU, RNF170 / Fold change vs veh, RNF170 / RFU, ZNF28 / Fold change vs veh, ZNF28 / RFU, RNGTT / Fold change vs veh, RNGTT / RFU, OGT / Fold change vs veh, OGT / RFU, BRD1 / Fold change vs veh, BRD1 / RFU, MARS / Fold change vs veh, MARS / RFU, ZNF655 / Fold change vs veh, ZNF655 / RFU, FAHD1 / Fold change vs veh, FAHD1 / RFU, BDP1 / Fold change vs veh, BDP1 / RFU, LRRCC1 / Fold change vs veh, LRRCC1 / RFU, ARID1A / Fold change vs veh, ARID1A / RFU, ZNF146 / Fold change vs veh, ZNF146 / RFU, ZNF330 / Fold change vs veh, ZNF330 / RFU, GPN3 / Fold change vs veh, GPN3 / RFU, C9orf123 / Fold change vs veh, C9orf123 / RFU, N4BP2L2 / Fold change vs veh, N4BP2L2 / RFU, ARFIP1 / Fold change vs veh, ARFIP1 / RFU, FAM179B / Fold change vs veh, FAM179B / RFU, BCL10 / Fold change vs veh, BCL10 / RFU, UHRF1BP1L / Fold change vs veh, UHRF1BP1L / RFU, BET1 / Fold change vs veh, BET1 / RFU, CNOT2 / Fold change vs veh, CNOT2 / RFU, ZNF268 / Fold change vs veh, ZNF268 / Fold change vs veh, ZNF507 / RFU, DGCR2 / Fold change vs veh, DGCR2 / RFU, WDSUB1 / Fold change vs veh, WDSUB1 / Fold change vs veh, HSP90B1 /// MIR3652 / RFU, ADSS / Fold change vs veh, ADSS / RFU, GK / Fold change vs veh, GK / RFU, ZNF148 / Fold change vs veh, ZNF148 / RFU, TAF9 / Fold change vs veh, TAF9 / RFU, SLC1A5 / Fold change vs veh, SLC1A5 / RFU, SLMO2 / Fold change vs veh, SLMO2 / RFU, ABCC4 / Fold change vs veh, ABCC4 / RFU, LOC101060439 /// RAP1B / Fold change vs veh, LOC101060439 /// RAP1B / RFU, RFX7 / Fold change vs veh, RFX7 / RFU, GTPBP10 / Fold change vs veh, GTPBP10 / RFU, CNEP1R1 / Fold change vs veh, CNEP1R1 / RFU, BIVM-ERCC5 /// ERCC5 / Fold change vs veh, BIVM-ERCC5 /// ERCC5 / RFU, ILF3 / Fold change vs veh, ILF3 / RFU 11762660_at / Fold change /veh 11762660_at / RFU VCAN (11757783_s_at) / Fold change /veh VCAN (11757783_s_at) / RFU DDX43 (11728927_at) / Fold change /veh DDX43 (11728927_at) / RFU KRT8 (11758188_x_at) / Fold change /veh KRT8 (11758188_x_at) / RFU NKD1 (11759106_at) / Fold change /veh NKD1 (11759106_at) / RFU SRD5A1 (11742802_a_at) / Fold change /veh SRD5A1 (11742802_a_at) / RFU TPSAB1 /// TPSB2 (11721975_s_at) / Fold change /veh TPSAB1 /// TPSB2 (11721975_s_at) / RFU GSTM3 (11746129_a_at) / Fold change /veh GSTM3 (11746129_a_at) / RFU IL23R (11737362_x_at) / Fold change /veh IL23R (11737362_x_at) / RFU TMEM51 (11727254_a_at) / Fold change /veh TMEM51 (11727254_a_at) / RFU PIWIL2 (11732686_x_at) / Fold change /veh PIWIL2 (11732686_x_at) / RFU ORM1 (11744905_x_at) / Fold change /veh ORM1 (11744905_x_at) / RFU CCDC152 (11743942_at) / Fold change /veh CCDC152 (11743942_at) / RFU ECM1 (11717891_a_at) / Fold change /veh ECM1 (11717891_a_at) / RFU IL23R (11748794_a_at) / Fold change /veh IL23R (11748794_a_at) / RFU TNFAIP8L3 (11732012_x_at) / Fold change /veh TNFAIP8L3 (11732012_x_at) / RFU MBOAT4 (11741988_at) / Fold change /veh MBOAT4 (11741988_at) / RFU 11764193_at / Fold change /veh 11764193_at / RFU TMEM53 (11763286_at) / Fold change /veh TMEM53 (11763286_at) / RFU MAGEB2 (11727129_at) / Fold change /veh MAGEB2 (11727129_at) / RFU TMEM200A (11744735_a_at) / Fold change /veh TMEM200A (11744735_a_at) / RFU CCDC152 (11751479_a_at) / Fold change /veh CCDC152 (11751479_a_at) / RFU FAM211A (11726209_a_at) / Fold change /veh FAM211A (11726209_a_at) / RFU RGS16 (11746705_a_at) / Fold change /veh RGS16 (11746705_a_at) / RFU VCAN (11755009_s_at) / Fold change /veh VCAN (11755009_s_at) / RFU RHOB (11743442_s_at) / Fold change /veh RHOB (11743442_s_at) / RFU RGS16 (11720943_a_at) / Fold change /veh RGS16 (11720943_a_at) / RFU RGS16 (11720944_at) / Fold change /veh RGS16 (11720944_at) / RFU, VPS4B / Fold change vs veh, VPS4B / RFU, CREB1 / Fold change vs veh, CREB1 / RFU, DNAJC13 / Fold change vs veh, DNAJC13 / RFU, GNAQ / Fold change vs veh, GNAQ / RFU, CDK5R1 / Fold change vs veh, CDK5R1 / RFU, ZRANB3 / Fold change vs veh, ZRANB3 / RFU, CUL4A / Fold change vs veh, CUL4A / RFU, CCNY / Fold change vs veh, CCNY / RFU, UFL1 / Fold change vs veh, UFL1 / RFU, COG3 / Fold change vs veh, COG3 / RFU, DIAPH2 / Fold change vs veh, DIAPH2 / RFU, SKA2 / Fold change vs veh, SKA2 / RFU, AFF3 / Fold change vs veh, AFF3 / RFU, LMF1 / Fold change vs veh, LMF1 / RFU, IPO11 / Fold change vs veh, IPO11 / RFU, DFFB / Fold change vs veh, DFFB / RFU, FOXP1 / Fold change vs veh, FOXP1 / RFU, CARD8 / Fold change vs veh, CARD8 / RFU, STRN3 / Fold change vs veh, STRN3 / RFU, ADK / Fold change vs veh, ADK / RFU, RASSF2 / Fold change vs veh, RASSF2 / RFU, WIPF1 / Fold change vs veh, WIPF1 / RFU, LARP1B / Fold change vs veh, LARP1B / RFU, RASA1 / Fold change vs veh, RASA1 / RFU, RB1 / Fold change vs veh, RB1 / RFU, PPFIA1 / Fold change vs veh, PPFIA1 / RFU, MAT2A / Fold change vs veh, MAT2A / RFU, CCT5 / Fold change vs veh, CCT5 / RFU, WDR92 / Fold change vs veh, WDR92 / RFU, CUX1 / Fold change vs veh, CUX1 / RFU, TTC7A / Fold change vs veh, TTC7A / RFU, TMEM135 / Fold change vs veh, TMEM135 / RFU, DEPTOR / Fold change vs veh, DEPTOR / RFU, CPM / Fold change vs veh, CPM / RFU, DNAJB6 / Fold change vs veh, DNAJB6 / RFU, CACNA2D3 / Fold change vs veh, CACNA2D3 / RFU, DTX4 / Fold change vs veh, DTX4 / RFU, TFCP2 / Fold change vs veh, TFCP2 / RFU, GMCL1 /// GMCL1P1 / Fold change vs veh, GMCL1 /// GMCL1P1 / RFU, AEBP2 / Fold change vs veh, AEBP2 / RFU, SNHG1 /// SNORD22 /// SNORD25 /// SNORD26 /// SNORD27 /// SNORD28 /// SNORD29 /// SNORD31 / Fold change vs veh, SNHG1 /// SNORD22 /// SNORD25 /// SNORD26 /// SNORD27 /// SNORD28 /// SNORD29 /// SNORD31 / Fold change (Aza/veh), C12orf56 (ProbeSet 11735607_a_at) / Fold change (ACY-1035/veh), C12orf56 (ProbeSet 11735607_a_at) / Fold change (Aza/veh), FGFR1OP (ProbeSet 11751329_s_at) / Fold change (ACY-1035/veh), FGFR1OP (ProbeSet 11751329_s_at) / Fold change (Aza/veh), VPS36 (ProbeSet 11739960_a_at) / Fold change (ACY-1035/veh), VPS36 (ProbeSet 11739960_a_at) / RFU SYPL1 (11715823_x_at) / Fold change /veh SYPL1 (11715823_x_at) / RFU IGFBP7 (11715501_s_at) / Fold change /veh IGFBP7 (11715501_s_at) / RFU REEP3 (11722064_at) / Fold change /veh REEP3 (11722064_at) / RFU IGLL1 (11728026_x_at) / Fold change /veh IGLL1 (11728026_x_at): dose or concentration left out as unconfirmed
# Details: ProbeSet 11741199_a_at; LIST B
smiles,measurement,value
Nc1ncn([C@@H]2O[C@H](CO)[C@@H](O)[C@H]2O)c(=O)n1 [azacitidine],"RFU, LRRCC1",65.24 RFU
